Measured values as given in patent US10945980B2, “Treatment for myopia” (The University of Newcastle, priority 2016, dated 2021).

Columns and labels:
[1] = test system: lens-induced myopia in guinea pigs; test: Intravitreal L-arginine in lens-induced (−6D) myopia, 3 days; type: in vivo, guinea pig (Cavia porcellus); conditions: 0.2 mM L-arginine daily intravitreal at 7, 8, 9 days of age, −6D lens 3 days; not significant p=0.169
[2] = test system: form deprivation myopia in guinea pigs; test: Oral (gavage) L-arginine in form deprivation myopia; type: in vivo, guinea pig (Cavia porcellus)
Excerpt: Guinea pigs (pigmented variety, Cavia porcellus) were bred, housed, and raised as described in Example 1. The University of Newcastle Animal Care and ethics Committee approved all procedures.
Two experimental protocols were employed (Table 3). In Experiment 1, 12 animals wore a diffuser over one eye (form-deprivation, FD) for […]. This period reliably induces myopia in the deprived eye compared to the untreated fellow eye. Seven of these animals also concurrently received a single gavage of L-arginine (200 mg/kg/day) each day at 9:30 am while briefly anaesthetised. […]
At the end of the FD period, at 12 days of age (Experiment 1) or at […] (Experiment 2), after the morning gavage treatment, both eyes were cyclopleged and 1.25 hours later, refractive error was measured. […]
After cycloplegia was induced, refractive error was measured in each eye using streak retinoscopy as previously described (Howlett and McFadden, 2007; McFadden et al., 2004). The spherical equivalent was calculated as the average of the horizontal and vertical meridians (see Howlett and McFadden, 2006). Next, ocular length was measured using high frequency ultrasound (20 MHz) as previously described (McFadden et al, 2004). At least 20 traces were recorded for each eye and distances were averaged for at least 10 of these recordings. […]

N=C(N)NCCC[C@H](N)C(=O)O [L-arginine]
interocular difference in refractive error (lens-wearing eye more hyperopic than fellow eye) [1]: 2.00 D | relative elongation (FD eye vs untreated eye) ([2]; Experiment 1: 200 mg/kg once daily gavage, 7 days FD, p=0.714): 42±30 μm | eye lengths vs animals only fed water ([2]; Experiment 2: 25 mg/kg twice daily gavage, 3 days FD, both the FD eye and the fellow eye): smaller eye lengths than animals only fed water
